{"source": "ChEMBL document CHEMBL1144912", "about": "“Anticancer activity of phenolic acids of natural or synthetic origin: a structure-activity study” (2003)", "key": {"L132 [1]": {"system": "L132", "test": "Concentration for low cytotoxic activity against L-132 cell line; Range is 50-100 uM", "format": "functional, cell-based", "conditions": "Homo sapiens"}, "MOLT-3 [2]": {"system": "MOLT-3", "test": "Concentration for low cytotoxic activity against MOLT-3 cell line; Range is 50-100 uM", "format": "functional, cell-based", "conditions": "Homo sapiens"}, "MDA-MB-231 [3]": {"system": "MDA-MB-231", "test": "Concentration for low cytotoxic activity against MDA-MB-231 cell line; Range is 50-100 uM", "format": "functional, cell-based", "conditions": "Homo sapiens"}, "HeLa [4]": {"system": "HeLa", "test": "Concentration for low cytotoxic activity against HeLa cell line; Range is 50-100 uM", "format": "functional, cell-based", "conditions": "Homo sapiens"}, "HeLa [5]": {"system": "HeLa", "test": "Percent reduction in cell viability of HeLa cells 72 hr after incubation with compound", "format": "functional, Homo sapiens"}, "MOLT-3 [6]": {"system": "MOLT-3", "test": "Percent reduction in cell viability of MOLT-3 cells 72 hr after incubation with the compound", "format": "functional, Homo sapiens"}, "MDA-MB-231 [7]": {"system": "MDA-MB-231", "test": "Percent reduction in cell viability of MDA-MB-231 cells 72 hr after incubation with compound", "format": "functional, Homo sapiens"}, "MOLT-3 [8]": {"system": "MOLT-3", "test": "Percent reduction in cell viability of MOLT-3 cells 72 hr after incubation with 100 uM of compound", "format": "functional, Homo sapiens"}, "L132 [9]": {"system": "L132", "test": "Percent reduction in cell viability of L-132 cells 72 hr after incubation with 100 uM of compound", "format": "functional, Homo sapiens"}, "HeLa [10]": {"system": "HeLa", "test": "Percent reduction in cell viability of HeLa cells 72 hr after incubation with 100 uM of compound", "format": "functional, Homo sapiens"}, "MOLT-3 [11]": {"system": "MOLT-3", "test": "Percent reduction in cell viability of MOLT-3 cells 72 hr after incubation with 50 uM of compound", "format": "functional, Homo sapiens"}, "MDA-MB-231 [12]": {"system": "MDA-MB-231", "test": "Percent reduction in cell viability of MDA-MB-231 cells 48 hr after incubation with compound", "format": "functional, Homo sapiens"}, "MOLT-3 [13]": {"system": "MOLT-3", "test": "Percent reduction in cell viability of MOLT-3 cells 48 hr after incubation with the compound", "format": "functional, Homo sapiens"}, "HeLa [14]": {"system": "HeLa", "test": "Cytotoxic effect of compound measured as cell density of HeLa cells 72 hrs after incubation with compound compared to a initial density of […] cells/mL", "format": "functional, Homo sapiens"}}, "data": [{"smiles": "O=C(O)/C=C/c1ccc(O)c(OO)c1", "values": [{"measurement": "Concentration", "setting": "L132 [1]", "result": 100, "unit": "µM"}, {"measurement": "Concentration", "setting": "MOLT-3 [2]", "result": 100, "unit": "µM"}, {"measurement": "Concentration", "setting": "MDA-MB-231 [3]", "result": 100, "unit": "µM"}, {"measurement": "Concentration", "setting": "HeLa [4]", "result": 100, "unit": "µM"}]}, {"smiles": "O=C(O)c1cc(O)c(O)c(O)c1", "note": "[GALLIC ACID]", "values": [{"measurement": "Reduction", "setting": "HeLa [5]", "result": 74, "unit": "%"}, {"measurement": "Reduction", "setting": "MOLT-3 [6]", "result": 50, "unit": "%"}, {"measurement": "Reduction", "setting": "MDA-MB-231 [7]", "result": 65, "unit": "%"}]}, {"smiles": "O=C(O)Cc1cc(O)c(O)c(O)c1", "values": [{"measurement": "Reduction", "setting": "MOLT-3 [8]", "result": 47, "unit": "%"}, {"measurement": "Reduction", "setting": "MDA-MB-231 [7]", "result": 60, "unit": "%"}, {"measurement": "Reduction", "setting": "L132 [9]", "result": 50, "unit": "%"}, {"measurement": "Reduction", "setting": "HeLa [10]", "result": 80, "unit": "%"}]}, {"smiles": "O=C(O)Cc1ccc(O)c(O)c1", "note": "[3,4-DIHYDROXYPHENYLACETIC ACID]", "values": [{"measurement": "Reduction", "setting": "MOLT-3 [11]", "result": 75, "unit": "%"}]}, {"smiles": "O=C(O)CCc1cc(O)c(O)c(O)c1", "values": [{"measurement": "Reduction", "setting": "MDA-MB-231 [12]", "result": 55, "unit": "%"}, {"measurement": "Reduction", "setting": "MOLT-3 [13]", "result": 45, "unit": "%"}]}, {"smiles": "O=C(O)CCc1ccc(O)c(O)c1", "note": "[DIHYDROCAFFEIC ACID]", "values": [{"measurement": "Cell density", "setting": "HeLa [14]", "result": 500000, "unit": "cells ml-1"}]}]}
